In US7557123B2, “Heterocyclic compound and medicinal use thereof” (Kyoto Pharmaceutical Industries, Ltd., priority 2001, dated 2009):
In brackets after ≈: the same amount, converted by molar mass. Blank lines part the entries; values can stand above or below the compound they belong to.

Assays:
[1] = Solubility of the compound in water (buffer pH 7.0); assay type: physicochemical; settings: 25 mg in 1.0 ml buffer pH 7.0, shaken at 25° C. for 1 hr, filtrate by HPLC
Description: The pulverized test compound (compounds of Examples 2, 20, 22, 24, 27, 30, 40 or 65, 25 mg) was added to a buffer (1.0 ml, pH 7.0) and the mixture was shaken at 25° C. for 1 hr and passed through a membrane filter. The concentration of the test compound in the filtrate was measured by high performance liquid chromatography.

[2] = system: female Wistar rats; assay: Toxicity by repeat administration in Wistar rats; assay type: in vivo; settings: 30 and 100 mg/kg/day orally for 2 consecutive weeks, vs control group; for ALT (GPT) / AST (GOT): serum; for weight of the heart / weight of the liver / weight of the white fat around the uterus: wet weight
Description: Using 6-week-old female Wistar rats, toxicity by repeat administration was examined.
The rats were grouped (6 rats per group) into a control group and test compound (compounds of Examples 2 and 20) administration groups (30 and 100 mg/kg/day), such that the mean and the standard deviation of the body weight of the rats were nearly the same. The test compound was suspended in 0.5% methylcellulose solution and administered orally for 2 consecutive weeks from the next day. The 0.5% methylcellulose solution was orally administered to the control group. The rats were fasted for 16 hr from the last day of administration, anesthetized by intraperitoneal administration of pentobarbital sodium (50 mg/kg) 24 hr after the final administration and the blood was drawn. Using EDTA-added blood, hematocrit value and erythrocyte count were measured, and using serum, AST (GOT) and ALT (GPT) were measured. In addition, the white fat around the uterus, and the liver and heart were removed and the wet weights thereof were measured.

[3] = system: male db/db mice; assay: Hypoglycemic and hypolipidemic activity in db/db mice; assay type: in vivo; settings: 3 mg/kg/day orally for 2 consecutive weeks, plasma 24 hours after final administration, non-fasting, vs control group
Description: Using db/db mice genetically showing high plasma glucose, hypertriglyceridemia, insulin resistance and obesity, the pharmacological activity of the test compounds of Examples 1, 2 and 20 was examined.
Blood was drawn under a non-fasting state from the tail vein of male db/db mice, the glucose level and triglyceride level of the plasma were measured using commercially available assay kits (glucose CII-test WAKO and triglyceride G-test WAKO, Wako Pure Chemical Industries, Ltd.). The mice were grouped (6 mice per group) into a control group and test compound (compounds of Examples 1, 2 and 20) administration group (3 mg/kg/day), such that the mean and standard deviation of the body weight and the plasma glucose and plasma triglyceride levels in each group were nearly the same. The test compound was suspended in 0.5% methylcellulose solution and administered orally for 2 consecutive weeks from the next day. The 0.5% methylcellulose solution was orally administered to the control group. Blood was drawn under a non-fasting state from the tail vein 24 hours after the final administration and the glucose and triglyceride levels of the plasma were measured. The decrease in the plasma glucose and triglyceride levels was calculated from the following formula. Decrease (%)=[(mean of control group−mean of test compound administration group)/mean of control group]×100 Results

[4] = system: male ICR mice; assay: Toxicity by repeat administration in ICR mice; assay type: in vivo; settings: 30 and 100 mg/kg/day orally for 2 consecutive weeks, vs control group; for plasma volume: calculated from Evans blue concentration; for weight of the heart / weight of the liver: wet weight
Description: Using 7-week-old male ICR mice, toxicity by repeat administration was examined.
The mice were grouped (7 mice per group) into a control group and test compound (compounds of Examples 2 and 20) administration groups (30 and 100 mg/kg/day), such that the mean and the standard deviation of the body weight of the mice were nearly the same. The test compound was suspended in 0.5% methylcellulose solution and administered orally for 2 consecutive weeks from the next day. The 0.5% methylcellulose solution was orally administered to the control group. At 24 hours after the final administration, Evans blue (100 μg/mouse) was administered from the tail vein and, 5 min later, the blood was drawn from the orbital venous plexus with anesthesia. Using EDTA-added blood, hematocrit value and erythrocyte count were measured. Using the plasma, Evans blue concentration was measured, from which plasma volume was calculated. The liver and heart were removed and wet weight was measured.

[5] = system: male KK-A^y mice; assay: Hypoglycemic and hypolipidemic activity in spontaneously diabetic KK-Ay mice; assay type: in vivo; settings: 10 mg/kg/day orally for 4 consecutive days, plasma 24 hours after final administration, non-fasting, vs control group
Description: Blood was drawn under a non-fasting state from the tail vein of male KK-A^y mice, and the glucose and triglyceride levels of the plasma were measured using commercially available assay kits (glucose CII-test WAKO and triglyceride G-test WAKO, Wako Pure Chemical Industries, Ltd.). The mice were grouped (5 mice per group) into a control group and an administration group, such that the mean and standard deviation of the body weight and the plasma glucose and plasma triglyceride levels in each group were nearly the same. The test compounds (compounds of Examples 1, 2, 4, 8, 20, 22, 24, 27, 30, 33, 36, 37, 40, 45, 47, 52, 56, 58 and 64) were suspended in 5% gum arabic solution and administered (10 mg/kg/day) orally to the administration group for 4 consecutive days. The 5% gumarabic solution was orally administered to the control group. Blood was drawn under a non-fasting state from the tail vein 24 hours after the final administration and the glucose and triglyceride levels of the plasma were measured. The decrease in the plasma glucose and triglyceride levels was calculated from the following formula. Decrease (%)=[(mean of control group−mean of test compound administration group)/mean of control group]×100 Results

Structure (SMILES): CC(C)(C)N.CC=CC=CC(=O)N1Cc2cc(OCCc3nc(/C=C/CC(C)C)oc3C)ccc2C[C@H]1C(=O)O (stereo in doubt) [Example 20, tert-butylamine 2-(2,4-hexadienoyl)-7-{2-[5-methyl-2-(4-methyl-trans-1-penten-1-yl)oxazol-4-yl]ethoxy}-1,2,3,4-tetrahydroisoquinoline-(3S)-carboxylate]
Solubility (mg/ml) [1]: 25 or above mg/ml | ALT (GPT) [2]: no significant difference | AST (GOT) [2]: no significant difference | erythrocyte count [2]: no significant difference | hematocrit value [2]: no significant difference | weight of the heart [2]: no significant difference | weight of the liver [2]: no significant difference | weight of the white fat around the uterus [2]: no significant difference | Decrease (%) in glucose level [3]: 54.0% | Decrease (%) in triglyceride level [3]: 72.0% | plasma volume [4]: no significant difference | body weight [4]: no significant difference | erythrocyte count [4]: no significant difference | hematocrit value [4]: no significant difference | weight of the heart [4]: no significant difference | weight of the liver [4]: no significant difference | Decrease (%) in glucose level [5]: 57.7% | Decrease (%) in triglyceride level [5]: 65.6%

Solubility [1]: 10000 µg/mL (≈ 21.5 mM)
Structure (SMILES): CC=CC=CC(=O)N1Cc2cc(OCCc3nc(/C=C/CCC)oc3C)ccc2C[C@H]1C(=O)O (stereo in doubt) [Example 2, 2-(2,4-hexadienoyl)-7-[2-(5-methyl-2-(trans-1-penten-1-yl)oxazol-4-yl)ethoxy]-1,2,3,4-tetrahydroisoquinoline-(3S)-carboxylic acid]
ALT (GPT) [2]: no significant difference | AST (GOT) [2]: no significant difference | erythrocyte count [2]: no significant difference | hematocrit value [2]: no significant difference | weight of the heart [2]: no significant difference | weight of the liver [2]: no significant difference | weight of the white fat around the uterus [2]: no significant difference | Decrease (%) in glucose level [3]: 57.2% | Decrease (%) in triglyceride level [3]: 78.1% | plasma volume [4]: no significant difference | body weight [4]: no significant difference | erythrocyte count [4]: no significant difference | hematocrit value [4]: no significant difference | weight of the heart [4]: no significant difference | weight of the liver [4]: no significant difference | Decrease (%) in glucose level [5]: 40.3% | Decrease (%) in triglyceride level [5]: 40.5%
